The results in this text go back to patent US9688615B2, “Benzimidazole inhibitors of the sodium channel” (Mark G. DeGiacomo, priority 2011, dated 2017).

Molecules are shown by their SMILES. Where two headings read alike, the source gives them in different places.

In this assay the test system is L5/L6 spinal nerve ligation (SNL) rats, mechanical hyperalgesia. Description: L5/L6 Spinal Nerve Ligation (SNL) Chung pain model, assessment of mechanical hyperalgesia (digital Randall-Selitto). The assay is classed as in vivo, male Sprague-Dawley rats. The note with it: p.o.; for Response Threshold (g) 1 hr / Response Threshold (g) 2 hr / Response Threshold (g) 4 hr / effect on mechanical hyperalgesia compared to vehicle treated animals / inhibition in vivo at 30 mg/kg: 30 mg/kg; for effect on mechanical hyperalgesia compared to vehicle treated animals: time points 1, 2, 4 hours after administration. An excerpt: The Spinal Nerve Ligation is an animal model representing peripheral nerve injury generating a neuropathic pain syndrome. In this model experimental animals develop the clinical symptoms of tactile allodynia and hyperalgesia. L5/L6 Spinal nerve ligation (SNL) injury was induced using the procedure of Kim and Chung (Kim et al., Pain 50:355-363 (1992)) in male Sprague-Dawley rats (Harlan; Indianapolis, Ind.) weighing 200 to 250 grams. An exemplary protocol is provided below
The animals were anesthetized with isoflurane, the left L6 transverse process was removed, and the L5 and L6 spinal nerves were tightly ligated with 6-0 silk suture. The wound was closed with internal sutures and external tissue adhesive.
Baseline and post-treatment values for mechanical hyperalgesia were evaluated using a digital Randall-Selitto device (dRS; IITC Life Sciences, Woodland Hills, Calif.). Animals were allowed to acclimate to the testing room for a minimum of 30 minutes before testing. Animals were placed in a restraint sling that suspends the animal, leaving the hind limbs available for testing. Paw compression threshold was measured once at each time point for the ipsilateral and contralateral paws. The stimulus was applied to the plantar surface of the hind paw by a dome-shaped tip placed between the 3rd and 4th metatarsus, and pressure was applied gradually over approximately 10 seconds. Measurements are taken from the first observed nocifensive behavior of vocalization, struggle or withdrawal. A cut-off value of 300 g was used to prevent injury to the animal. The mean and standard error of the mean (SEM) were determined for each paw for each treatment group. Fourteen days after surgery, mechanical hyperalgesia was assessed and rats were assigned to treatment groups based on pre-treatment baseline values. Prior to initiating drug delivery, baseline behavioural testing data can be obtained. At selected times after infusion of the Test or Control Article behavioural data can then be collected again.

Where [1] appears, read: Rattus norvegicus, po, 1 hr after administration, read-out: % Reversal 1 hr.
The mark [2] stands for this setting: Rattus norvegicus, po, 2 hr after administration, read-out: % Reversal 2 hr.
Setting [3] is: Rattus norvegicus, po, 4 hr after administration, read-out: % Reversal 4 hr.

In the case of `O=C1CNCCN1Cc1nc2cc(C(F)(F)F)cc(C(F)(F)F)c2[nH]1` [Compound (110), 1-((5,7-bis(trifluoromethyl)-1H-benzo[d]imidazol-2-yl)methyl)piperazin-2-one], the “effect on mechanical hyperalgesia compared to vehicle treated animals” value (“effect … compared to vehicle treated animals” below) is “significantly decrease mechanical hyperalgesia at two and four hours”. The “Response Threshold (g) 1 hr” value (1 hr after administration) worked out at 100.6 g. The “Response Threshold (g) 2 hr” value (2 hr after administration) came to 148.5 g. For the same compound, the “Response Threshold (g) 4 hr” value (4 hr after administration) is 126.1 g. Moreover, the inhibition in vivo at 30 mg/kg under setting [1] was 14.6%. Also, under setting [2], the inhibition in vivo at 30 mg/kg is 51.2%. In addition, the inhibition in vivo at 30 mg/kg under setting [3] turned out to be 34.1%.
On to `NCCc1nc2cc(C(F)(F)F)cc(C(F)(F)F)c2[nH]1` [Compound (33), 2-(5,7-bis(trifluoromethyl)-1H-benzo[d]imidazol-2-yl)ethanamine], for which the “effect … compared to vehicle treated animals” value is “significantly decreased mechanical hyperalgesia at 1, 2 and 4 hours”. For the setting “1 hr after administration”, the “Response Threshold (g) 1 hr” value is 113.6 g. Moreover, the “Response Threshold (g) 2 hr” value (2 hr after administration) is given as 136.9 g. Further, the “Response Threshold (g) 4 hr” value (4 hr after administration) was 150.8 g. Also, under setting [1], the inhibition in vivo at 30 mg/kg came to 22.4%. Further, the inhibition in vivo at 30 mg/kg under setting [2] was 44.7%. Moreover, under setting [3], the inhibition in vivo at 30 mg/kg was found to be 58.1%.
For the compound `CC(C)C[C@H](CN)Cc1nc2c(C(F)(F)F)cc(C(F)(F)F)cc2[nH]1` [Compound (31), (S)-2-((4,6-bis(trifluoromethyl)-1H-benzo[d]imidazol-2-yl)methyl)-4-methylpentan-1-amine], the “effect … compared to vehicle treated animals” value is “significantly decreased mechanical hyperalgesia 2 and 4 hours”. The “Response Threshold (g) 1 hr” value (1 hr after administration) was determined as 107.9 g. In addition, the “Response Threshold (g) 2 hr” value (2 hr after administration) stood at 139.0 g. Further, the “Response Threshold (g) 4 hr” value (4 hr after administration) was found to be 109.9 g. For the same compound, under setting [1], the inhibition in vivo at 30 mg/kg amounted to 17.2%. In addition, the inhibition in vivo at 30 mg/kg under setting [2] stood at 48%. The inhibition in vivo at 30 mg/kg under setting [3] was 19.2%.
In the case of `CNCc1nc2cc(C(F)(F)F)cc(C(F)(F)F)c2[nH]1` [Compound (41), 1-(5,7-bis(trifluoromethyl)-1H-benzo[d]imidazol-2-yl)-N-methylmethanamine], the “effect … compared to vehicle treated animals” value was “significantly decreased mechanical hyperalgesia at 2 and 4 hours”. Moreover, where the note is “1 hr after administration”, the “Response Threshold (g) 1 hr” value was determined as 99.6 g. The “Response Threshold (g) 2 hr” value (2 hr after administration) is given as 108.3 g. For the same compound, the “Response Threshold (g) 4 hr” value (4 hr after administration) is 109.0 g. For the same compound, the inhibition in vivo at 30 mg/kg under setting [1] came to 13.8%. Besides, under setting [2], the inhibition in vivo at 30 mg/kg worked out at 20.7%. Under setting [3], the inhibition in vivo at 30 mg/kg is 21.3%.
On to `CC(C)(N)Cc1nc2cc(C(F)(F)F)cc(C(F)(F)F)c2[nH]1` [Compound (34), 1-(5,7-bis(trifluoromethyl)-1H-benzo[d]imidazol-2-yl)-2-methylpropan-2-amine], for which the “effect … compared to vehicle treated animals” value is “significantly decreased mechanical hyperalgesia 2 and 4 hours”. Besides, under “1 hr after administration”, the “Response Threshold (g) 1 hr” value was 104.5 g. Moreover, the “Response Threshold (g) 2 hr” value (2 hr after administration) was determined as 144.8 g. The “Response Threshold (g) 4 hr” value (4 hr after administration) is recorded as 132.4 g. For the same compound, under setting [1], the inhibition in vivo at 30 mg/kg amounted to 15.3%. Further, under setting [2], the inhibition in vivo at 30 mg/kg is 54.2%. Besides, the inhibition in vivo at 30 mg/kg under setting [3] came out at 42.3%.
In the case of `CC(C)(N)C(=O)NCc1nc2cc(C(F)(F)F)cc(C(F)(F)F)c2[nH]1` [Compound (36), 2-amino-N-((5,7-bis(trifluoromethyl)-1H-benzo[d]imidazol-2-yl)methyl)-2-methylpropanamide], the “effect … compared to vehicle treated animals” value was “no significant effect on mechanical hyperalgesia at any time point tested”. The “Response Threshold (g) 1 hr” value (1 hr after administration) is reported as 87.8 g. Also, the “Response Threshold (g) 2 hr” value (2 hr after administration) stood at 107.0 g. The “Response Threshold (g) 4 hr” value (4 hr after administration) stood at 112.3 g. Further, under setting [1], the inhibition in vivo at 30 mg/kg is -0.5%. In addition, the inhibition in vivo at 30 mg/kg under setting [2] was determined as 18.6%. Further, the inhibition in vivo at 30 mg/kg under setting [3] was determined as 23.8%.
As for `FC(F)(F)c1cc(C(F)(F)F)c2nc(CC3CNC3)[nH]c2c1` [Compound (1), 2-(azetidin-3-ylmethyl)-4,6-bis(trifluoromethyl)-1H-benzo[d]imidazole], the “effect … compared to vehicle treated animals” value is “significantly decreased mechanical hyperalgesia at 2 and 4 hours”. The “Response Threshold (g) 1 hr” value (1 hr after administration) was 93.8 g. The “Response Threshold (g) 2 hr” value (2 hr after administration) amounted to 120.6 g. In addition, the “Response Threshold (g) 4 hr” value (4 hr after administration) is recorded as 113.3 g. The inhibition in vivo at 30 mg/kg under setting [1] was found to be 9.2%. Besides, the inhibition in vivo at 30 mg/kg under setting [2] is 30.2%. Under setting [3], the inhibition in vivo at 30 mg/kg turned out to be 24.4%.
Turning to `CN(Cc1nc2cc(C(F)(F)F)cc(C(F)(F)F)c2[nH]1)S(N)(=O)=O` [Compound (56), N-{[4,6-bis(trifluoromethyl)-1H-benzimidazol-2-yl]methyl}-N-methylsulfuric diamide], the “effect … compared to vehicle treated animals” value was “significantly decreased mechanical hyperalgesia 2 and 4 hours”. The “Response Threshold (g) 1 hr” value (1 hr after administration) is on record as 110.8 g. Moreover, the “Response Threshold (g) 2 hr” value (2 hr after administration) came out at 131.4 g. Moreover, the “Response Threshold (g) 4 hr” value (4 hr after administration) turned out to be 140.4 g. Further, the inhibition in vivo at 30 mg/kg under setting [1] was 19.8%. Moreover, the inhibition in vivo at 30 mg/kg under setting [2] came to 40.4%. Under setting [3], the inhibition in vivo at 30 mg/kg is 49.4%.
Regarding `NCC(=O)NCc1nc2cc(C(F)(F)F)cc(C(F)(F)F)c2[nH]1` [Compound (24), 2-amino-N-((5,7-bis(trifluoromethyl)-1H-benzo[d]imidazol-2-yl)methyl)acetamide], the “effect … compared to vehicle treated animals” value is “no significant effect on mechanical hyperalgesia at any time point tested”. In addition, under “1 hr after administration”, the “Response Threshold (g) 1 hr” value is 84.0 g. Moreover, under “2 hr after administration”, the “Response Threshold (g) 2 hr” value is on record as 118.4 g. The “Response Threshold (g) 4 hr” value (4 hr after administration) was determined as 116.6 g. Besides, the inhibition in vivo at 30 mg/kg under setting [1] is 0.8%. Further, the inhibition in vivo at 30 mg/kg under setting [2] turned out to be 27.9%. In addition, the inhibition in vivo at 30 mg/kg under setting [3] turned out to be 26.5%.
Turning to `NCC1(CC(=O)O)CCCCC1` [Gabapentin], under “Rattus norvegicus, po, 2 h, 100 mg/kg, 2 hr after administration, read-out: % Reversal 2 hr”, the inhibition in vivo at 100 mg/kg was 55.3%.
